Experimental data: publication PMC12119673, “Apoptotic cell death induced by copper (II), manganese (II) and silver (I) complexes containing bridging dicarboxylate and 1,10-phenanthroline ligands: one of the multi-modes of anticancer activity?” (Biometals, 2025)
Read-outs that look alike come from different tables or passages of the source.

Assays:
Assay type in all cases: cell-based, human
[1] = system: caspase-3/7 in MCF-7 cells; assay: Caspase 3/7 expression, FLICA (FAM-DEVD-FMK) flow cytometry; conditions: MCF-7, IC25 concentration, 24 h
Method: The expression of caspase-3/7 in MCF-7 and MCF-12A cells was determined using the VybrantTM FAM™ Caspase-3 and Caspase-7 Assay Kit (Cat# V35118) (Thermo Fisher Scientific, Ireland). Cells were seeded at a density of 1 × 10^5 in T25 flasks and incubated in routine conditions for 24 h. […] Post-exposure, the cells were harvested for staining.
(§1) Flow cytometry data analysis was performed with the CytExpert package (Ver. 2.4) (Beckman Coulter, USA) and Microsoft^Ⓡ Excel (USA). The mean MFI and percentage cells were calculated using these packages, followed by one-way ANOVA analysis with post hoc Bonferroni correction using GraphPad Prism (Ver. 9.4) (GraphPad, USA).
The expression of caspase-3/7 was analysed in MCF-7 and MCF-12A cells using fluorescent labelled inhibitors of caspase (FLICA): FAM-DEVD-FMK. […] Following the apoptosis induction study, it was of interest to determine whether the complexes were stimulating the executioner caspases triggering the irreversible proteolytic degradation of cells, culminating in cell death. […] These three complexes were selected based on their structural similarities, while incorporating alternative metal centres.

[2] = system: apoptotic genes in MCF-12A cells; assay: Apoptosis-related gene expression, qRT-PCR; conditions: IC25 concentration, 24 h, relative to negative control
Method: (§2) A broad scope of molecular targets involved in the apoptotic pathway were selected for analysis using qRT-PCR including initiators, mediators and inhibitors. These gene targets along with their cellular location and associated primer set are outlined in Table 2. Primer sets for each gene were designed using NCBI nucleotide sequences and the Primer3 application (Table 3). Once designed, the primers were synthesised by Sigma Aldrich, Ireland.
(§3) MCF-7 and MCF-12A cells were seeded at a density of 1 × 10^5 in T25 flasks and incubated for 24 h allowing for attachment. Following incubation, the seeding media was removed, and the cells were washed with PBS. […] Post-exposure, RNA was isolated from the cells. Tri-reagent^Ⓡ (Sigma, Ireland) (Cat# T9424) was added to the cells followed by centrifugation at 300 g for 5 min. The RNA was precipitated using chloroform, followed by centrifugation and washing of the pellet using 75% ethanol. The RNA was resuspended in 30 μl of nuclease-free water. The RNA was either used immediately for qRT-PCR or stored at −80 ℃. The RNA from each sample was quantified using the NanoDrop™ 2000 Spectrophotometer (Thermo Fisher Scientific, Ireland). The A260/A230 ratio was measured to ensure the purity of each sample. Prior to cDNA synthesis, all samples were adjusted to a concentration of 100 ng. The RNA was then reverse transcribed into cDNA using the Quanta Biosciences Kit (Quanta Biosciences, USA) (Cat# 95047). Using the SimpliAmp Thermal Cycler (Applied Biosystems; Thermo Fisher Scientific, Ireland), the following settings were applied: 5 min at 22 ℃, 30 min at 42 ℃, 5 min at 85 ℃; samples were then maintained in an indefinite hold at 4 ℃ prior to being used for quantitative real-time PCR. The cDNA templates were amplified and analysed using SYBR™ Green (Fisher Scientific, UK) (Cat#10187094). Using the 7500 fast Real-Time PCR System (Applied Biosystems, USA), the following thermal cycling setting were applied for amplification: Pre-Incubation (1 cycle) 95 ℃, 5 Minutes, 4.4 ℃ ramp; Amplification (45 cycles) 95 °C 10 s ramp 4.4 °C, 60 °C 10 s ramp 2.2 °C, 72 °C 10 s ramp 4.4 °C; Melting Curve (1 cycle) 95 °C 5 s ramp 4.4 °C, 65 °C 1 min ramp 2.2 °C, 97 °C continuous ramp 0.11 °C acquisition 10 per °C; Cooling (1 cycle) 40 °C 10 s ramp 1.5 °C. Two reference genes, actin and tubulin, were employed to determine the expression of the target genes. No template controls were included to confirm the absence of template contamination and auto-fluorescence. Each PCR plate contained three technical replicates per sample and gene target, with each experiment repeated three independent times using three individual biological replicates.
(§4) qRT-PCR data was analysed by first using the Vandesompele method to calculate the geometric mean of Ct values for the reference genes, actin and tubulin. These values were used for normalisation of the target gene expression values which were then calculated using the Livak and Schmittgen formula: 2^−ΔCt1(test)−ΔCt2(control) (Livak and Schmittgen [2001]; Vandesompele et al. [2002]).
(§5) The expression profiles (Fig. 4) display the log(2) transformed mean expression value for each gene target relative to the negative control. Expression values for each target were determined relative to the geometric means of reference genes. […] Each graph contains a threshold line, set at the value of one, this represents baseline expression levels of genes.

[3] = system: apoptotic genes in MCF-7 cells; assay: Apoptosis-related gene expression, qRT-PCR; conditions: MCF-7, IC25 concentration, 24 h, relative to negative control
Method: as §2, §3, §4, §5

MCF-7 cells [4] = assay: In vitro cytotoxicity assessment, alamar blue assay, 24-h exposure
Method: The MCF-7 (human breast cancer) and MCF-12A (non-tumourigenic human breast) cell lines were obtained from the Technological University Dublin (TUDublin, City Campus) internal cell bank and commercially from the American Type Culture Collection (ATCC), respectively. Both cell lines were cultured using Dulbecco’s Modified Eagle Medium/Nutrient Mixture F-12 Ham (DMEM-F12) (Sigma, Ireland) (Cat# D6421) media. The MCF-7 media was supplemented with 10% Foetal Bovine Serum (Sigma, Ireland) (Cat# F7524) and 1% L-Glutamine (Sigma, Ireland) (Cat# 592020C). The MCF-12A media was supplemented with 5% Equine Serum (Sigma, Ireland) (Cat# H0146) 1.25% L-Glutamine (Sigma, Ireland) (Cat# 592020C), 20 ng/ml Human Epidermal Growth Factor (Thermo Fisher Scientific, Ireland) (Cat# PHG0313), 0.01 mg/ml insulin (Thermo Fisher Scientific, Ireland)(Cat# 12585014) and 500 ng/ml hydrocortisone (Sigma, Ireland) (Cat# H0888). The cells were grown in T75 culture flasks (Sarstedt, Germany) (Cat# 83.3911.002) and were incubated in a 5% CO2 atmosphere at 37 ℃. […] Following the incubation period, the media was removed, and cells were washed with sterile phosphate-buffered saline (PBS). […] Following the exposure period, the drug-containing media was removed, and cells were washed three times with PBS, ensuring complete removal of the test agents. A 5% working solution of Alamar Blue (Thermo Fisher Scientific, Ireland) (Cat# DAL1100) was prepared in dark conditions using unsupplemented cell culture media. 100 μl of the solution was added to each well, and the cells were incubated for 3 h. […] Each exposure was carried out in triplicate plates and was repeated three independent times. The software packages Microsoft^Ⓡ Excel (USA) and GraphPad Prism (Ver. 10.0.3) (GraphPad, USA) were used to analyse the alamar blue data. The treated sample values were first normalised to the negative control values. After normalisation, the mean and standard deviations (SD) were established using Microsoft^Ⓡ Excel. The statistical analysis package GraphPad was then used to determine the IC25 and IC50 concentrations.

MCF-12A cells = assay: as above
Method: The MCF-7 (human breast cancer) and MCF-12A (non-tumourigenic human breast) cell lines were obtained from the Technological University Dublin (TUDublin, City Campus) internal cell bank and commercially from the American Type Culture Collection (ATCC), respectively. Both cell lines were cultured using Dulbecco’s Modified Eagle Medium/Nutrient Mixture F-12 Ham (DMEM-F12) (Sigma, Ireland) (Cat# D6421) media. The MCF-7 media was supplemented with 10% Foetal Bovine Serum (Sigma, Ireland) (Cat# F7524) and 1% L-Glutamine (Sigma, Ireland) (Cat# 592020C). The MCF-12A media was supplemented with 5% Equine Serum (Sigma, Ireland) (Cat# H0146) 1.25% L-Glutamine (Sigma, Ireland) (Cat# 592020C), 20 ng/ml Human Epidermal Growth Factor (Thermo Fisher Scientific, Ireland) (Cat# PHG0313), 0.01 mg/ml insulin (Thermo Fisher Scientific, Ireland)(Cat# 12585014) and 500 ng/ml hydrocortisone (Sigma, Ireland) (Cat# H0888). The cells were grown in T75 culture flasks (Sarstedt, Germany) (Cat# 83.3911.002) and were incubated in a 5% CO2 atmosphere at 37 ℃. The cells were monitored daily, and once 80–90% confluence was reached, they were subcultured with an enzymatic dissociation method using trypsin. Both cell lines were routinely subcultured for 1 week prior to beginning experimental work, to ensure the cells had adapted to the environment.
The MCF-7 and MCF-12A cells were seeded at a density of 1 × 10^4 in 96-well flat bottom plates (Sarstedt, Germany) (Cat# 83.3924) and incubated in a 5% CO2 atmosphere at 37 ℃ for 24 h prior to exposure to the complexes. Following the incubation period, the media was removed, and cells were washed with sterile phosphate-buffered saline (PBS). […] All agents were diluted in supplemented cell culture media, and the cells were exposed to a concentration range of 0.5 μM–100 μM for 24 h in the conditions outlined previously. Following the exposure period, the drug-containing media was removed, and cells were washed three times with PBS, ensuring complete removal of the test agents. A 5% working solution of Alamar Blue (Thermo Fisher Scientific, Ireland) (Cat# DAL1100) was prepared in dark conditions using unsupplemented cell culture media. 100 μl of the solution was added to each well, and the cells were incubated for 3 h. Following incubation, absorbance values were obtained using a Varioskan Lux (Thermo Scientific, USA) at 570 nm and 600 nm wavelengths. Each exposure was carried out in triplicate plates and was repeated three independent times.
The software packages Microsoft^Ⓡ Excel (USA) and GraphPad Prism (Ver. 10.0.3) (GraphPad, USA) were used to analyse the alamar blue data. The treated sample values were first normalised to the negative control values. After normalisation, the mean and standard deviations (SD) were established using Microsoft^Ⓡ Excel. The statistical analysis package GraphPad was then used to determine the IC25 and IC50 concentrations. […] A p value of 0.05 or lower is considered to be statistically significant.

MCF-7 cells [5] = assay: Apoptosis induction, Annexin V / propidium iodide flow cytometry; conditions: MCF-7, IC25 concentration, 24 h
Method: MCF-7 and MCF-12A cells were seeded at a density of 1 × 10^5 in T25 flasks (Sarstedt, Germany) and incubated for 24 h at 37 °C with 5% CO2 allowing for attachment. Post -incubation, the media was removed, cells were washed with sterile PBS and then treated using IC25 concentrations established from the in vitro cytotoxicity screen. […] After the exposure period, the cells were enzymatically detached using trypsin, collected and centrifuged at 1200RPM for 10 min. The cells were then washed with PBS, re-centrifuged and resuspended in 1 ml of annexin binding buffer. Prior to staining, the concentration of each sample was adjusted to 1 × 10^6 cells/ml. The cells were stained with 1 μl of propidium iodide (PI) (Sigma, Ireland) (Cat #P4864) and 2 μl of Annexin V (Thermo Fisher Scientific, Ireland) (Cat #A13199). The cells were incubated at room temperature for 15 min prior to analysis. The staining process was completed in the dark to eliminate interference with photo-sensitive reagents. Immediately prior to analysis by flow cytometry, 400 μl of annexin binding buffer was added to each sample. Samples were analysed using a (CytoFLEX) (Beckman Coulter, USA). The AV/PI assay was completed three independent times.
as §1
The induction of apoptosis was analysed in MCF-7 and MCF-12A cells using the Annexin V and Propidium Iodide assay with flow cytometry. […] The assay allows for the differentiation of viable, apoptotic and necrotic cells based on the selective staining of Annexin V and PI. Annexin V binds to phosphatidylserines externalised to the outer leaflet of the plasma membrane during apoptosis; and PI is a membrane impermeable dye that binds to DNA of necrotic cells with compromised plasma membranes.

[6] = MCF-7, 24-hour exposure, per one metal centre, mean ± S.D. (N=3)
[7] = MCF-7, 24-hour exposure, per one metal centre, mean ± S.D. (N=3), read-out: IC50 calculated per one metal centre
[8] = MCF-12A, 24-hour exposure, per one metal centre, mean ± S.D. (N=3)
[9] = MCF-12A, 24-hour exposure, per one metal centre, mean ± S.D. (N=3), read-out: IC50 calculated per one metal centre
[10] = MCF-7, 24-h exposure, 25% reduction in metabolic activity, mean ± SD (N = 3)
[11] = MCF-12A, 24-h exposure, 25% reduction in metabolic activity, mean ± SD (N = 3)

## N.N.[Cl][Pt][Cl] [Cisplatin, reference compound]
[1]
  Expression of caspase-3/7 (% cells): lowest expression levels
[2]
  Caspase gene expression (caspase-9, -8, -3): all caspases seen to be activated
  Pro-apoptotic gene expression (BID, BIM, BAD, BAX): pro-apoptotic BIM and BAD were upregulated
[3]
  Caspase gene expression (caspase-9, -8, -3): all caspases seen to be activated
  Pro-apoptotic gene expression (BID, BIM, BAD, BAX): pro-apoptotic BIM and BAD were upregulated

## O=C([O-])CCCCCCC(=O)[O-].O=C([O-])CCCCCCC(=O)[O-].[Cu+2].[Cu+2] [Complex 3, [Cu2(oda)2]]
MCF-7 cells [4]
  Cytotoxic activity IC25 ± SD: > 100 µM
  IC50: > 100 µM
MCF-7 cells [4]; [6]
  IC25 calculated per one metal centre: >100  µM
MCF-7 cells [4]; [7]
  IC50: > 100 µM
MCF-12A cells
  Cytotoxic activity IC25 ± SD: > 100 µM
  IC50: > 100 µM
MCF-12A cells; [8]
  IC25 calculated per one metal centre: >100  µM
MCF-12A cells; [9]
  IC50: > 100 µM

## O=C([O-])CCCCCCC(=O)[O-].[Ag+].[Ag+] [Complex 6, [Ag2(oda)]]
MCF-7 cells [4]; Ag(I) pre-cursor vs complex 4
  Decrease in toxicity compared to phen-containing complex 4: approximately twofold
MCF-7 cells [4]; Ag(I) pre-cursor vs complex 5
  Decrease in toxicity compared to phen-containing complex 5: ~3.5 fold
MCF-7 cells [4]; [10]
  Cytotoxic activity IC25 ± SD: 13.90 ± 2.93 µM
MCF-7 cells [4]; [6]
  IC25 calculated per one metal centre: 27.80 ± 5.86 µM
MCF-12A cells; [11]
  Cytotoxic activity IC25 ± SD: 6.43 ± 4.9 µM
MCF-12A cells; [8]
  IC25 calculated per one metal centre: 12.86 ± 9.80 µM
MCF-7 cells [5]
  Necrotic population (% cells): high necrotic populations

## O.O=C([O-])CCCCCCC(=O)[O-].[Mn+2] [Complex 8, [Mn(oda)]⋅H2O]
MCF-7 cells [4]; [10]
  Cytotoxic activity IC25 ± SD: > 100 µM
MCF-7 cells [4]; MCF-7, 24-h exposure, 50% reduction in metabolic activity, mean ± SD (N = 3), read-out: Cytotoxic activity IC50 ± SD
  IC50: > 100 µM
MCF-7 cells [4]; [6]
  IC25 calculated per one metal centre: >100  µM
MCF-7 cells [4]; [7]
  IC50: > 100 µM
MCF-12A cells; [11]
  Cytotoxic activity IC25 ± SD: > 100 µM
MCF-12A cells; MCF-12A, 24-h exposure, 50% reduction in metabolic activity, mean ± SD (N = 3), read-out: Cytotoxic activity IC50 ± SD
  IC50: > 100 µM
MCF-12A cells; [8]
  IC25 calculated per one metal centre: >100  µM
MCF-12A cells; [9]
  IC50: > 100 µM
